Data on ten compounds can be found in patent US20240158446A1, “CYCLIC COMPOUND HAVING SELECTIVE INHIBITORY ACTION ON KRAS OVER HRAS AND NRAS” (CHUGAI SEIYAKU KABUSHIKI KAISHA, priority 2021, published 2024).

Usually Kd stands for the free concentration of one partner at which half of the binding sites on the other are occupied at equilibrium, for simple one-to-one binding.

Like-named read-outs stand apart in the source and are kept apart here.

The target of test [1] is GDP-bound KRAS wild-type protein (Homo sapiens, UniProt P01116). In words: Binding to KRAS by surface plasmon resonance (SPR), Single Cycle Kinetics. The note with it: SPR, Single Cycle Kinetics. (In general: In SPR one partner is held on a chip, and binding of the other changes the refractive index at the surface.)
Chain of GDP-bound KRAS wild-type protein (P01116 whole entry): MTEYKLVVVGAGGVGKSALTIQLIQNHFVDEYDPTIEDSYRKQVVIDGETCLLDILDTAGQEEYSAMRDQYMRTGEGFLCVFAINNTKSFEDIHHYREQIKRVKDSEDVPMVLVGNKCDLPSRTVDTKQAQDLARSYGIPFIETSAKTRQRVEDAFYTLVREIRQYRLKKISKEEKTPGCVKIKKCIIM
Test [2] deals with GDP-bound NRAS wild-type protein (Homo sapiens, UniProt P01111). Briefly: Binding to NRAS by surface plasmon resonance (SPR), Single Cycle Kinetics. To be noted: SPR; for NRAS/KRAS (ratio of KD value for NRAS to KD value for KRAS): GDP-bound NRAS wild-type protein vs GDP-bound KRAS wild-type protein.
Chain of GDP-bound NRAS wild-type protein (P01111 whole entry): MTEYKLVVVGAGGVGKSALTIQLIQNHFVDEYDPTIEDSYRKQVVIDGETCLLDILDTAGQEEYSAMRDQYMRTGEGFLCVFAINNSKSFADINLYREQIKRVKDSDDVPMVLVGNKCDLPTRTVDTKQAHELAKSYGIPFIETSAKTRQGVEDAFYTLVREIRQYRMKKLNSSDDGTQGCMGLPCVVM
For test [3], the system named is human lung cancer strain NCI-H441.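 Note: cell proliferation inhibition after four days measured by CellTiter-Glo.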
Test [4] deals with GDP-bound HRAS wild-type protein (Homo sapiens, UniProt P01112). In words: Binding to HRAS by surface plasmon resonance (SPR), Single Cycle Kinetics. The note with it: SPR; for HRAS/KRAS (ratio of KD value for HRAS to KD value for KRAS): GDP-bound HRAS wild-type protein vs GDP-bound KRAS wild-type protein.
Chain of GDP-bound HRAS wild-type protein (P01112 whole entry): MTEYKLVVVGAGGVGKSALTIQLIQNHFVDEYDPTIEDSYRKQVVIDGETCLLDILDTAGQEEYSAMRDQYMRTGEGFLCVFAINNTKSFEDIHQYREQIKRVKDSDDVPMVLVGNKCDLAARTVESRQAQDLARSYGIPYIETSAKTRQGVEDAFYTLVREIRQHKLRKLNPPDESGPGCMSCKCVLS
Where [5] appears, read: GDP-bound KRAS wild-type protein, read-out: KRAS KD.
The mark [6] stands for this setting: 1:1 binding model, GDP-bound KRAS wild-type protein, read-out: KRAS KD.

As for `CC[C@H](C)[C@@H]1NC(=O)[C@H](COC)N(C)C(=O)C[C@@H](C(=O)N(C)CC)N(C)C(=O)[C@H](C2CCCC2)N(C)C(=O)C2(CC(C)(C)C2)NC(=O)[C@@H]2C[C@H](C)CN2C(=O)[C@H](CCc2ccc(C(F)(F)F)c(Cl)c2)NC(=O)CN(C)C(=O)[C@H](Cc2ccc(C)cc2)N2CC/C=C\C[C@@H](C2=O)N(C)C(=O)CN(C)C1=O` [PP2506], in test [1] (setting [5]), the Kd is 0.13 nM. Also, the “NRAS/KRAS (ratio of KD value for NRAS to KD value for KRAS)” value in test [2] is “A (a compound having 10 or more and less than 20 is denoted as A)”. This compound also returned an IC50 in test [3] of 10.6 nM. In addition, the “HRAS/KRAS (ratio of KD value for HRAS to KD value for KRAS)” value in test [4] was “A (a compound having 10 or more and less than 20 is denoted as A)”.

For `CCO[C@@H]1C[C@H]2C(=O)NC3(CC(C)(C)C3)C(=O)N(C)[C@@H](C(CC)CC)C(=O)N(C)[C@H](C(=O)N(C)C)CC(=O)N(C)[C@@H](C(C)C)C(=O)N[C@@H]([C@@H](C)CC)C(=O)N(C)CC(=O)N(C)[C@H]3C/C=C\CCN(C3=O)[C@@H](CC3CCC(F)(F)CC3)C(=O)N(C)CC(=O)N[C@@H](CCc3ccc(C(F)(F)F)c(Cl)c3)C(=O)N2C1` [PP2492], the Kd in test [1] (setting [5]) turned out to be 2.4 nM. In addition, the “NRAS/KRAS (ratio of KD value for NRAS to KD value for KRAS)” value in test [2] is listed as “AA (a compound having 20 or more is denoted as AA)”. For the same compound, the IC50 in test [3] was found to be 76.7 nM. For the same compound, the “HRAS/KRAS (ratio of KD value for HRAS to KD value for KRAS)” value in test [4] was “A (a compound having 10 or more and less than 20 is denoted as A)”.

In the case of `CCC[C@H]1C(=O)N[C@@H]([C@@H](C)CC)C(=O)N(C)CC(=O)N(C)[C@H]2C/C=C\CCN(C2=O)[C@@H](Cc2ccc(C)cc2)C(=O)N(C)CC(=O)N[C@@H](CCc2ccc(C(F)(F)F)c(OC)c2)C(=O)N2C[C@@H](C)C[C@H]2C(=O)N(C)C2(CCC2)C(=O)N(C)[C@@H](C2CCCC2)C(=O)N(C)[C@H](C(=O)N(C)C)CC(=O)N1C` [PP2364], the equilibrium dissociation constant (Kd) in test [1] (setting [5]) is 0.016 nM. Besides, in test [2], the “NRAS/KRAS (ratio of KD value for NRAS to KD value for KRAS)” value was “A (a compound having 10 or more and less than 20 is denoted as A)”. In test [3], the IC50 was 4.6 nM. Besides, the “HRAS/KRAS (ratio of KD value for HRAS to KD value for KRAS)” value in test [4] was “B (a compound having 3 or more and less than 10 is denoted as B)”.

`CCCCCC[C@H]1C(=O)N[C@@H]([C@@H](C)CC)C(=O)N(C)CC(=O)N(C)[C@H]2C/C=C\CCN(C2=O)[C@@H](Cc2ccc(C(F)(F)F)cc2)C(=O)N(C)CC(=O)N[C@@H](CCc2ccc(Cl)c(Cl)c2)C(=O)N2C[C@H](OCC)C[C@H]2C(=O)NC2(CCC2)C(=O)N(C)[C@@H](C2CCCC2)C(=O)N(C)[C@H](C(=O)N(C)C)CC(=O)N1C` [PP1252]: in test [1] (setting [6]), the Kd is 0.3 nM. Moreover, the “NRAS/KRAS (ratio of KD value for NRAS to KD value for KRAS)” value in test [2] (KD ratio class) is listed as “AA (a compound having 20 or more is denoted as AA)”. Besides, the IC50 in test [3] was found to be 51.2 nM. Moreover, in test [4] (KD ratio class), the “HRAS/KRAS (ratio of KD value for HRAS to KD value for KRAS)” value was “A (a compound having 10 or more and less than 20 is denoted as A)”.

On to `CCO[C@@H]1C[C@H]2C(=O)NC3(CCC3)C(=O)N(C)[C@@H](C3CCCC3)C(=O)N(C)[C@H](C(=O)N(C)C)CC(=O)N(C)[C@@H](CC3CCC3)C(=O)N[C@@H]([C@@H](C)CC)C(=O)N(C)CC(=O)N(C)[C@H]3C/C=C\CCN(C3=O)[C@@H](Cc3ccc(C(F)(F)F)cc3)C(=O)N(C)CC(=O)N[C@@H](CCc3cc(F)c(C(F)(F)F)c(F)c3)C(=O)N2C1` [PP1118, (2S,8S,12R,14S,20S,23S,27S,30S,36S,38Z)-27-(cyclobutylmethyl)-20-cyclopentyl-8-[2-[3,5-difluoro-4-(trifluoromethyl)phenyl]ethyl]-12-ethoxy-N,N,4,19,22,26,32,35-octamethyl-30-[(1S)-1-methylpropyl]-3,6,9,15,18,21,25,28,31,34,42-undecaoxo-2-[[4-(trifluoromethyl)phenyl]methyl]spiro[1,4,7,10,16,19,22,26,29,32,35-undecazatricyclo[34.5.1.0^10,14]dotetracont-38-ene-17,1′-cyclobutane]-23-carboxamide], for which the Kd in test [1] (setting [5]) came to 0.056 nM. Also, in test [2], the “NRAS/KRAS (ratio of KD value for NRAS to KD value for KRAS)” value was “A (a compound having 10 or more and less than 20 is denoted as A)”. The IC50 in test [3] is 6.5 nM. In addition, in test [4], the “HRAS/KRAS (ratio of KD value for HRAS to KD value for KRAS)” value was “B (a compound having 3 or more and less than 10 is denoted as B)”.

With `CCC[C@H]1C(=O)N[C@@H]([C@@H](C)CC)C(=O)N(C)CC(=O)N(C)[C@H]2C/C=C\CCN(C2=O)[C@@H](Cc2ccc(C)cc2)C(=O)N(C)CC(=O)N[C@@H](CCc2cc(F)c(C(F)(F)F)c(F)c2)C(=O)N2C[C@H](OCC)C[C@H]2C(=O)N(C)C2(CCC2)C(=O)N(C)[C@@H](C2CCCC2)C(=O)N(C)[C@H](C(=O)N2CCCC2)CC(=O)N1C` [PP3121, (2S,8S,12R,14S,20S,23S,27S,30S,36S,38Z)-20-cyclopentyl-8-[2-[3,5-difluoro-4-(trifluoromethyl)phenyl]ethyl]-12-ethoxy-4,16,19,22,26,32,35-heptamethyl-30-[(1S)-1-methylpropyl]-27-propyl-2-(p-tolylmethyl)-23-(pyrrolidine-1-carbonyl)spiro[1,4,7,10,16,19,22,26,29,32,35-undecazatricyclo[34.5.1.0^10,14]dotetracont-38-ene-17,1′-cyclobutane]-3,6,9,15,18,21,25,28,31,34,42-undecone], the Kd is 0.043 nM in test [1] (1:1 binding model, read-out: KD value with respect to GDP-bound KRAS wild-type protein) and 0.043 nM in test [1] (setting [5]). The “NRAS/KRAS (ratio of KD value for NRAS to KD value for KRAS)” value in test [2] was “A (a compound having 10 or more and less than 20 is denoted as A)”. Also, in test [2] (KD(NRAS)/KD(KRAS)), the “ratio of the KD value with respect to GDP-bound NRAS wild-type protein to the KD value with respect to KRAS” value was “A (a compound having 10 or more and less than 20 is denoted as A)”. In test [3] (read-out: NCI-H441 cell proliferation inhibitory activity, 50% proliferation inhibitory concentration (IC50 value), NCI-H441, four days, CellTiter-Glo), the IC50 was determined as 1.5 nM. Also, the “HRAS/KRAS (ratio of KD value for HRAS to KD value for KRAS)” value in test [4] is “A (a compound having 10 or more and less than 20 is denoted as A)”. The “ratio of the KD value with respect to GDP-bound HRAS wild-type protein to the KD value with respect to KRAS” value in test [4] (KD(HRAS)/KD(KRAS)) was “A (a compound having 10 or more and less than 20 is denoted as A)”.

Turning to `CCO[C@@H]1C[C@H]2C(=O)NC3(CC(C)(C)C3)C(=O)N(C)[C@@H](C3CCCC3)C(=O)N(C)[C@H](C(=O)N(C)CC)CC(=O)N(C)[C@@H](COC)C(=O)N[C@@H]([C@@H](C)CC)C(=O)N(C)CC(=O)N(C)[C@H]3C/C=C\CCN(C3=O)[C@@H](Cc3ccc(C)cc3)C(=O)N(C)CC(=O)N[C@@H](CCc3ccc(C(F)(F)F)c(Cl)c3)C(=O)N2C1` [PP2507], the Kd in test [1] (setting [5]) is 0.061 nM. For the same compound, in test [2], the “NRAS/KRAS (ratio of KD value for NRAS to KD value for KRAS)” value is listed as “AA (a compound having 20 or more is denoted as AA)”. In test [3], the IC50 was 8.9 nM. Also, the “HRAS/KRAS (ratio of KD value for HRAS to KD value for KRAS)” value in test [4] was “A (a compound having 10 or more and less than 20 is denoted as A)”.

On to `CCO[C@@H]1C[C@H]2C(=O)NC3(CCC3)C(=O)N(C)[C@@H](C3CCCC3)C(=O)N(C)[C@H](C(=O)N(C)C)CC(=O)N(C)[C@@H](CC3CC3)C(=O)N[C@@H]([C@@H](C)CC)C(=O)NCC(=O)N(C)[C@H]3C/C=C\CCN(C3=O)[C@@H](Cc3ccc(C(F)(F)F)cc3)C(=O)N(C)CC(=O)N[C@@H](CCc3cc(F)c(C(F)(F)F)c(F)c3)C(=O)N2C1` [PP1406, (2S,8S,12R,14S,20S,23S,27S,30S,36S,38Z)-20-cyclopentyl-27-(cyclopropylmethyl)-8-[2-[3,5-difluoro-4-(trifluoromethyl)phenyl]ethyl]-12-ethoxy-N,N,4,19,22,26,35-heptamethyl-30-[(1S)-1-methylpropyl]-3,6,9,15,18,21,25,28,31,34,42-undecaoxo-2-[[4-(trifluoromethyl)phenyl]methyl]spiro[1,4,7,10,16,19,22,26,29,32,35-undecazatricyclo[34.5.1.0^10,14]dotetracont-38-ene-17,1′-cyclobutane]-23-carboxamide], for which the Kd in test [1] (setting [6]) is 0.072 nM. Moreover, in test [2] (KD ratio class), the “NRAS/KRAS (ratio of KD value for NRAS to KD value for KRAS)” value is “A (a compound having 10 or more and less than 20 is denoted as A)”. The compound further registered an IC50 in test [3] of 10.9 nM. In addition, the “HRAS/KRAS (ratio of KD value for HRAS to KD value for KRAS)” value in test [4] (KD ratio class) is “B (a compound having 3 or more and less than 10 is denoted as B)”.

In the case of `CCCO[C@@H]1C[C@H]2C(=O)NC3(CCC3)C(=O)N(C)[C@@H](C3CCCC3)C(=O)N(C)[C@H](C(=O)N3CCOCC3)CC(=O)N(C)[C@@H](CC(C)C)C(=O)N[C@@H]([C@@H](C)CC)C(=O)N(C)CC(=O)N(C)[C@H]3CCCCN(C3=O)[C@@H](Cc3ccc(C(F)(F)F)cc3)C(=O)N(C)CC(=O)N[C@@H](CCc3cc(F)c(C(F)(F)F)c(F)c3)C(=O)N2C1` [PP1159], the Kd in test [1] (setting [5]) worked out at 0.036 nM. The “NRAS/KRAS (ratio of KD value for NRAS to KD value for KRAS)” value in test [2] is “C (A compound having a KD ratio of 0.1 or more and less than 3 is denoted as C)”. The IC50 in test [3] is 13 nM. For the same compound, the “HRAS/KRAS (ratio of KD value for HRAS to KD value for KRAS)” value in test [4] is “B (a compound having 3 or more and less than 10 is denoted as B)”.

Turning to `CC[C@H](C)[C@@H]1NC(=O)[C@H](CC2CC2)N(C)C(=O)C[C@@H](C(=O)N2CCOCC2)N(C)C(=O)[C@H](C2CCCC2)N(C)C(=O)C2(CCC2)NC(=O)[C@@H]2CCCN2C(=O)[C@H](CCc2ccc(C(F)(F)F)c(Cl)c2)NC(=O)CN(C)C(=O)[C@H](Cc2ccc(C(F)(F)F)cc2)N2C[C@H](C)CC[C@@H](C2=O)N(C)C(=O)CN(C)C1=O` [PP1344], the Kd in test [1] (setting [6]) was found to be 0.14 nM. Besides, the “NRAS/KRAS (ratio of KD value for NRAS to KD value for KRAS)” value in test [2] (KD ratio class) is “B (a compound having 3 or more and less than 10 is denoted as B)”. Moreover, in test [3], the IC50 came out at 16.7 nM. For the same compound, the “HRAS/KRAS (ratio of KD value for HRAS to KD value for KRAS)” value in test [4] (KD ratio class) was “B (a compound having 3 or more and less than 10 is denoted as B)”.
